The values that follow come from US11926579B1, “8-(4-methoxybenzylideneamino)naphthalene-1,3-disulfonic acid as an antioxidant compound” (KING FAISAL UNIVERSITY, priority 2023, dated 2024).

This experiment is described as follows: DPPH radical scavenging antioxidant test. Type of experiment: biochemical. Conditions: for Inhibition (radical scavenging inhibition) / A (absorbance): DPPH 0.2 mL (0.75 mM), compound 3 μM in ethanol, 30 min incubation in the dark; for A (absorbance): read at 517 nm against a blank. The protocol: The antioxidant properties of the 8-(4-methoxybenzylideneamino)naphthalene-1,3-disulfonic acid were studied by adding 0.2 mL DPPH (0.75 mM)) to compound 8-(4-methoxybenzylideneamino) naphthalene-1,3 -di sulfonic acid (III) (3 μM) in ethanol. After 30 min of incubation in the dark, the absorbance was read against a blank at 517 nm. Ascorbic acid (vitamin C) was used as standard antioxidants (positive control). A blank sample was prepared by 0.2 ml of DPPH in 3 ml ethanol. A negative control sample was run using ethanol instead of the sample. The radical scavenging inhibition was calculated using the following equation: […]
(The DPPH test is a chemical assay of radical scavenging.)

Each structure is given as a SMILES string.

As to `COc1ccc(/C=N/c2cccc3cc(S(=O)(=O)O)cc(S(=O)(=O)O)c23)cc1` [Product III, 8-(4-methoxybenzylideneamino)naphthalene-1,3-disulfonic acid], the “A (absorbance)” value is recorded as 0.22. In addition, where the note is “517 nm”, the “Inhibition (radical scavenging inhibition)” value was 50%. Also, the “antioxidant potential (DPPH), in words” value (DPPH in vitro test, 517 nm, vitamin C as positive control) was “high potential as an antioxidant compared to vitamin C”.

As to `O=C1O[C@H]([C@@H](O)CO)C(O)=C1O` [vit c, Ascorbic acid, reference compound], the “A (absorbance)” value amounted to 0.12. In addition, the “Inhibition (radical scavenging inhibition)” value (517 nm) stood at 74%.
